From patent publication US4404230A, “4-Hydroxy-1,2-Benzisothiazol-3(2H)-one-1,1-dioxides and salts thereof” (priority 1980, dated 1983)

Key:
rats [1] = assay: Effect on the kaolin edema in rats; format: in vivo, Chbb:THOM-rats; conditions: 100 mg/kg p.o.
Protocol: According to Hillebrecht [Arzneimittel-Forschung 4, 607 (1954)] an edema was induced in 20 Chbb:THOM-rats (SPF) of both sexes having a body weight of 125-150 gm by subplantar injection of 0.05 ml of a 10% kaolin suspension in the hind paw. 30 minutes before, 100 mg/kg of substance B as aqua dist. solution was orally administered to 10 animals. Ten control animals received only the solvent. The thickness of the paw was measured before the administration of the test compound and 5 hours after administration. The edema-altering effect was expressed in percent of the average degree of swelling of the control animals.

mice [2] = assay: Effect on motility of mice (sedative and stimulating effect); format: in vivo, Chbb:NMRI-mice; conditions: 200 mg/kg p.o.; for % motility: vs control
Protocol: Eight female Chbb:NMRI-mice (SPF) having a body weight from 20 to 26 g were tested in light beam cages after oral administration of the test compound in a suspension of 1% tylose. 30, 90 and 150 minutes after administration of the test compound, their motility was measured for 5 minutes each; a control group received only the solvent (tylose:carboxymethyl cellulose). The change in motility, given in percent with regard to that of the control group, was determined.

anesthetized cats = assay: Effect on the blood circulation in anesthetized cats; format: in vivo; conditions: 10 mg/kg i.v.
Protocol: In 3 adult anesthetized cats the following parameters were measured:
The arterial blood pressure in the Arteria carotis by means of a Statham pressure transducer;
The heart rate by means of a Grass-tachograph;
The respiration rate by means of a Fleisch pneumotachograph;
10 mg/kg of substance B as a solution in aqua dist. were administered i.v.

rats [3] = assay: Effect on choleresis in rats; format: in vivo, Chbb:THOM-rats
Protocol: A cannula was tied to the ductus choledochus of anesthetized, fasted male Chbb:THOM-rats (SPF) having a body weight of 180-220 gm, and the rate of flow of bile liquid was registered via a drop counter. 100 or 200 mg/kg of substance B in aqua dist. solution were administered intraduodenally to each of 10 animals. A control group received only the solvent. The number of the drops received within 1 hour before the treatment was compared with the number of the drops received within 1-5 hours after treatment.
In Table 10 the average number of drops 1-5 hours after treatment is shown in percent, compared with the values before treatment.

[4] = test system: Salmonella typhimurium TA 1538; assay: Test for mutagenic effects (AMES-system); format: cell-based
Protocol: (§1) Compound B was tested according to the AMES-system [Mutation Research 31, 347-364 (1975)] for mutagenic properties. In order to show the whole spectrum of induced molecular DNA-damage (base substitutions, frame-shift mutations, deletions) the auxotrophic bacterial strains Salmonella typhimurium TA 98, TA 100, TA 1535, TA 1537 and TA 1538 were used as genetic indicators.
(§2) The tests for all microorganisms were carried out such that the effect of the test compound on a microsomal enzyme system together with the corresponding co-factors could be tested, and furthermore to determine the effect on enzyme induction. The tests were performed without an activating system and in the presence of an activating system. For the in-vitro-activation S-9 supernatants (fractions of the endoplasmatic reticulum) of normal, i.e. not pretreated rats and of rats induced by aroclor 1254 (500 mg/kg) wer used. For the S-9 induced fraction, 3 different concentrations were tested.
(§3) Compound B was tested at concentrations of 0.25, 2.5, 5 and 10 mg/plate.

[5] = test system: Salmonella typhimurium TA 1535; assay: Test for mutagenic effects (AMES-system); format: cell-based
Protocol: as §1, §2, §3

[6] = test system: Salmonella typhimurium TA 1537; assay: Test for mutagenic effects (AMES-system); format: cell-based
Protocol: as §1, §2, §3

[7] = test system: Salmonella typhimurium TA 100; assay: Test for mutagenic effects (AMES-system); format: cell-based
Protocol: as §1, §2, §3

[8] = test system: Salmonella typhimurium TA 98; assay: Test for mutagenic effects (AMES-system); format: cell-based
Protocol: as §1, §2, §3

mice [9] = assay: Effect on the duration of hexobarbital anesthesia in mice; format: in vivo, Chbb:NMRI-mice; conditions: 100 mg/kg p.o.
Protocol: According to Winter [Pharmacol. exp. Ther. 94, 7, (1948)], 100 mg/kg of substance B in a suspension of 1% tylose were administered perorally to 10 male Chbb:NMRI-mice (SPF) having a body weight of 20 to 26 gm. A control group received only the suspension agent. After 1 hour all animals were injected i.p. with 80 mg/kg of hexobarbital. The mice were put on a metal plate at 37° C. and the time from the beginning of the loss of the righting reflex until the recurrence of this reflex was measured as the duration of the anesthesia. This time difference was calculated in percent with regard to that of the control group.

rats [10] = assay: Ulcerogenic effect in rats; format: in vivo, Chbb:THOM-rats; conditions: 200 mg/kg p.o.
Protocol: 200 mg/kg of substance B in 1% tylose suspension were administered perorally to 10 male and female (1:1) Chbb:THOM-rats (SPF) having an approximate body weight of 200 gm. A control group received only the suspension agent. After 4 hours all animals were killed, the stomach was dissected and inspected with regard to lesions of the mucosa.

[11] = vs values before administration, N = 3
[12] = 0.25, 2.5, 5 and 10 mg/plate, with and without activating system

O=C1NS(=O)(=O)c2cccc(O)c21.[Na]
antiexudative effect (in words) (rats [1]): does not show any antiexudative effect in rats | Average degree of swelling (rats [1]; 5 hours): 239.0 | Inhibition in % (rats [1]; 5 hours): 13.7% | effect on motility of mice (in words) (mice [2]): did not affect the motility of mice | Motility of mice (mice [2]; 30-35 min): 92 ± 21 contacts/animal | % motility (mice [2]; 30-35 min): 102% | Motility of mice (mice [2]; 90-95 min): 84 ± 28 contacts/animal | % motility (mice [2]; 90-95 min): 101% | Motility of mice (mice [2]; 150-155 min): 49 ± 17 contacts/animal | % motility (mice [2]; 150-155 min): 72% | effect on arterial blood pressure, heart rate and respiration rate (in words) (anesthetized cats): does not show any effect on the arterial blood pressure, the heart rate and the respiration rate | Change in % blood pressure (anesthetized cats; [11]): +1% | Change in % heart rate (anesthetized cats; [11]): -1% | Change in % respiration rate (anesthetized cats; [11]): -2% | Choleresis in %, compared with the values before treatment (rats [3]; 100 mg/kg i.d., 1 hour): 97% | Choleresis, average number of drops (rats [3]; 100 mg/kg i.d., 1 hour): 53.3 drops/ hr | Choleresis in %, compared with the values before treatment (rats [3]; 100 mg/kg i.d., 2 hours): 94% | Choleresis, average number of drops (rats [3]; 100 mg/kg i.d., 2 hours): 51.7 drops/ hr | Choleresis in %, compared with the values before treatment (rats [3]; 100 mg/kg i.d., 3 hours): 92% | Choleresis, average number of drops (rats [3]; 100 mg/kg i.d., 3 hours): 50.7 drops/ hr | Choleresis in %, compared with the values before treatment (rats [3]; 100 mg/kg i.d., 4 hours): 91% | Choleresis, average number of drops (rats [3]; 100 mg/kg i.d., 4 hours): 49.9 drops/ hr | Choleresis in %, compared with the values before treatment (rats [3]; 100 mg/kg i.d., 5 hours): 90% | Choleresis, average number of drops (rats [3]; 100 mg/kg i.d., 5 hours): 49.5 drops/ hr | Choleresis in %, compared with the values before treatment (rats [3]; 200 mg/kg i.d., 1 hour): 94% | Choleresis, average number of drops (rats [3]; 200 mg/kg i.d., 1 hour): 44.1 drops/ hr | Choleresis in %, compared with the values before treatment (rats [3]; 200 mg/kg i.d., 2 hours): 92% | Choleresis, average number of drops (rats [3]; 200 mg/kg i.d., 2 hours): 43.1 drops/ hr | Choleresis in %, compared with the values before treatment (rats [3]; 200 mg/kg i.d., 3 hours): 92% | Choleresis, average number of drops (rats [3]; 200 mg/kg i.d., 3 hours): 43.1 drops/ hr | Choleresis in %, compared with the values before treatment (rats [3]; 200 mg/kg i.d., 4 hours): 92% | Choleresis, average number of drops (rats [3]; 200 mg/kg i.d., 4 hours): 43.5 drops/ hr | Choleresis in %, compared with the values before treatment (rats [3]; 200 mg/kg i.d., 5 hours): 94% | Choleresis, average number of drops (rats [3]; 200 mg/kg i.d., 5 hours): 44.4 drops/ hr | effect on choleresis (in words) (rats [3]; 100 and 200 mg/kg i.d.): does not show any intraduodenal effects on choleresis in rats | spontaneous mutation rate [4, 12]: did not lead to an increase in the spontaneous mutation rate | frame-shift mutations ([4]; TA 1538): does not induce base substitutions (S. typhimurium TA 1535, TA 100) or frame-shift mutations | spontaneous mutation rate [5, 12]: did not lead to an increase in the spontaneous mutation rate | base substitutions ([5]; TA 1535): does not induce base substitutions | spontaneous mutation rate [6, 12]: did not lead to an increase in the spontaneous mutation rate | frame-shift mutations ([6]; TA 1537): does not induce base substitutions (S. typhimurium TA 1535, TA 100) or frame-shift mutations | spontaneous mutation rate [7, 12]: did not lead to an increase in the spontaneous mutation rate | base substitutions ([7]; TA 100): does not induce base substitutions | spontaneous mutation rate [8, 12]: did not lead to an increase in the spontaneous mutation rate | frame-shift mutations ([8]; TA 98): does not induce base substitutions (S. typhimurium TA 1535, TA 100) or frame-shift mutations | effect on duration of hexobarbital anesthesia (in words) (mice [9]): does not show any effect on the duration of hexobarbital anesthesia | Duration of anesthesia (mice [9]; hexobarbital 80 mg/kg i.p.): 15.65 ± 6.32 min | Duration of anesthesia, % of control (mice [9]; hexobarbital 80 mg/kg i.p.): 106% | ulcerogenic effect (in words) (rats [10]): does not show any ulcerogenic effect in rats | Animals having stomach lesions (rats [10]; 4 hours, N = 10): 0
